Earlier results as cited in patent US20090236541A1, “System and Methods for Optical Imaging” (General Electric Company, priority 2008, published 2009).

Assays:
[1] = system: mitochondria and/or the endoplasmic reticulum; conditions: concentration-dependent manner
[2] = system: heart of a living laboratory rat; conditions: living laboratory rat after a thoracotomy
[3] = small molecule form

| Compound | partitioning into mitochondria and/or endoplasmic reticulum [1] | imaging of blood flow in the heart [2] | solubility in blood [3] |
| --- | --- | --- | --- |
| CN1C(=CC=C2CCCC(C=CC3=[N+](C)c4ccccc4C3(C)C)=C2Cl)C(C)(C)c2ccccc21.[O-][Cl+3]([O-])([O-])[O-] [IR-786] | partitions efficiently into mitochondria and/or the endoplasmic reticulum | successfully applied | – |
| CC1(C)C(/C=C/C=C/C=C/C=C2\N(CCCCS(=O)(=O)O)c3ccc4ccccc4c3C2(C)C)=[N+](CCCCS(=O)(=O)[O-])c2ccc3ccccc3c21 [Indocyanine green, indocyanine green] | – | – | somewhat less soluble in blood |
